Results: ChEMBL document CHEMBL5696443 (Clin Cancer Res, 2016)
Calls of active or inactive are those of the source. No cut-off for these calls is given here.

Legend:
[1] = target: Inhibitor of nuclear factor kappa-B kinase subunit alpha (Homo sapiens) (UniProt O15111); assay: Inhibition of human CHUK at 1 uM using KKKKERLLDDRHDSGLDSMKDEE as substrate in presence of [gamma33P]-ATP by HotSpot assay relative to control
Focal adhesion kinase 1 = Focal adhesion kinase 1 (Homo sapiens, UniProt Q05397); assay: Inhibition of human FAK using poly (Glu, Tyr)4:1 as substrate in presence of [gamma33P]-ATP by HotSpot assay
[2] = target: Testis-specific serine/threonine-protein kinase 1 (Homo sapiens, UniProt Q9BXA7); assay: Inhibition of human TSSK1 using KKKVSRSGLYRSPSMPENLNRPR as substrate in presence of [gamma33P]-ATP by HotSpot assay
[3] = target: Dual specificity protein kinase CLK1 (Homo sapiens, UniProt P49759); assay: Inhibition of human CLK1 using MBP as substrate in presence of [gamma33P]-ATP by HotSpot assay
[4] = target: Ribosomal protein S6 kinase alpha-3 (Homo sapiens, UniProt P51812); assay: Inhibition of human RPS6kA3 using KKLNRTLSVA as substrate in presence of [gamma33P]-ATP by HotSpot assay
[5] = target: Tyrosine-protein kinase Fyn (Homo sapiens, UniProt P06241); assay: Inhibition of human FYN using poly (Glu, Tyr)4:1 as substrate in presence of [gamma33P]-ATP by HotSpot assay
[6] = target: Vascular endothelial growth factor receptor 2 (Homo sapiens, UniProt P35968); assay: Inhibition of human VEGFR2 using poly (Glu, Tyr)4:1 as substrate in presence of [gamma33P]-ATP by HotSpot assay
[7] = test system: Serine/threonine-protein kinase A-Raf (Homo sapiens), P10398 [Y301D,Y302D]; assay: Inhibition of human ARAF Y301D/Y302D double mutant at 1 uM using MEK1 as substrate in presence of [gamma33P]-ATP by HotSpot assay relative to control
[8] = target: Cytoplasmic tyrosine-protein kinase BMX (Homo sapiens) (UniProt P51813); assay: Inhibition of human BMX at 1 uM using poly (Glu, Tyr)4:1 as substrate in presence of [gamma33P]-ATP by HotSpot assay relative to control
[9] = target: CDK7/Cyclin H/MNAT1 (Homo sapiens) (UniProt P51946+P50613+P51948); assay: Inhibition of human CDK7/CyclinH/MAT1 at 1 uM using MBP as substrate in presence of [gamma33P]-ATP by HotSpot assay relative to control; format: protein-complex assay
[10] = target: Ephrin type-A receptor 2 (Homo sapiens) (UniProt P29317); assay: Inhibition of human EPHA2 at 1 uM using poly (Glu, Tyr)4:1 as substrate in presence of [gamma33P]-ATP by HotSpot assay relative to control
[11] = target: Ephrin type-A receptor 5 (Homo sapiens) (UniProt P54756); assay: Inhibition of human EPHA5 at 1 uM using poly (Glu, Tyr)4:1 as substrate in presence of [gamma33P]-ATP by HotSpot assay relative to control
[12] = target: G protein-coupled receptor kinase 6 (Homo sapiens) (UniProt P43250); assay: Inhibition of human GRK6 at 1 uM using casein as substrate in presence of [gamma33P]-ATP by HotSpot assay relative to control
[13] = target: Interleukin-1 receptor-associated kinase 4 (Homo sapiens) (UniProt Q9NWZ3); assay: Inhibition of human IRAK4 at 1 uM using modified-CGRTGRRNSI-NH2 as substrate in presence of [gamma33P]-ATP by HotSpot assay relative to control
[14] = target: Mitogen-activated protein kinase 13 (Homo sapiens) (UniProt O15264); assay: Inhibition of human MAPK13 at 1 uM using MBP as substrate in presence of [gamma33P]-ATP by HotSpot assay relative to control
[15] = target: Misshapen-like kinase 1 (Homo sapiens) (UniProt Q8N4C8); assay: Inhibition of human MINK1 at 1 uM using MBP as substrate in presence of [gamma33P]-ATP by HotSpot assay relative to control
[16] = target: Serine/threonine-protein kinase Nek6 (Homo sapiens) (UniProt Q9HC98); assay: Inhibition of human NEK6 at 1 uM using casein as substrate in presence of [gamma33P]-ATP by HotSpot assay relative to control
[17] = target: Serine/threonine-protein kinase pim-2 (Homo sapiens) (UniProt Q9P1W9); assay: Inhibition of human PIM2 at 1 uM using RSRHSSYPAGT as substrate in presence of [gamma33P]-ATP by HotSpot assay relative to control
[18] = target: RAF proto-oncogene serine/threonine-protein kinase (Homo sapiens) (UniProt P04049); assay: Inhibition of human RAF1 at 1 uM using MEK1 as substrate in presence of [gamma33P]-ATP by HotSpot assay relative to control
[19] = target: Serine/threonine-protein kinase STK11 (Homo sapiens) (UniProt Q15831); assay: Inhibition of human STK11 at 1 uM using LSNLYHQGKFLQTFCGSPLYRRR as substrate in presence of [gamma33P]-ATP by HotSpot assay relative to control
[20] = target: Serine/threonine-protein kinase 26 (Homo sapiens) (UniProt Q9P289); assay: Inhibition of human STK26 at 1 uM using MBP as substrate in presence of [gamma33P]-ATP by HotSpot assay relative to control
[21] = target: Non-receptor tyrosine-protein kinase TYK2 (Homo sapiens) (UniProt P29597); assay: Inhibition of human TYK2 at 1 uM using KKSRGDYMTMQIG as substrate in presence of [gamma33P]-ATP by HotSpot assay relative to control
KARPAS-299 = assay: Antitumor activity against ALK positive human KARPAS-299 cells xenografted in SCID beige mouse assessed as inhibition of tumor growth administered orally once daily for 14 days; format: functional, cell-based; settings: dose 10-50 mg/kg, route po, time 14.0 day
NCI-H2228 = assay: Antitumor activity against ALK positive human NCI-H2228 cells xenografted in CB-17/SCID orthotopic brain tumor mouse model assessed as reduction in tumor burden in brain at 50 mg/kg, po administered daily and measured after 64 days by H&E staining based analysis; format: functional, organism-based; settings: time 64.0 day
[22] = target: Insulin-like growth factor 1 receptor (Homo sapiens, UniProt P08069)
Description: Inhibition of IGF-1R phosphorylation in IGF-1 stimulated human HepG2 cells preincubated with compound for 30 mins followed by IGF-1 stimulation for 10 mins by Immunoblot analysis

NCI-H3122 = settings: time 72 hrs
[23] = test system: EML4-ALK (Homo sapiens), Q9UM73+Q9HC35 [C1156Y]; settings: BaF3, time 3-5 weeks
[24] = test system: EML4-ALK (Homo sapiens), Q9UM73+Q9HC35 [F1174C]; settings: BaF3, dose 500.0 nmol/L, time 3-5 weeks

Testis-specific serine/threonine-protein kinase 1, sequence (Q9BXA7 whole entry): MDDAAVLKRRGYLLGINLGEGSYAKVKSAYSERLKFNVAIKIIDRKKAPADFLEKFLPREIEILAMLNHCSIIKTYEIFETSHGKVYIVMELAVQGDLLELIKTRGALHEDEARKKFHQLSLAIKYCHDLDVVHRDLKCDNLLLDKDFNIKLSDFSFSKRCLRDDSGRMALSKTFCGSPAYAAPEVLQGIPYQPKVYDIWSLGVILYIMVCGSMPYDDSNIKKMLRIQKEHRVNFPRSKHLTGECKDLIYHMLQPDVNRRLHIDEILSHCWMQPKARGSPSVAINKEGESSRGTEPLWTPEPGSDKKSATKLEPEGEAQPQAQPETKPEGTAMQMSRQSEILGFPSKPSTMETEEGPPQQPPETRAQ
Serine/threonine-protein kinase STK11 (Homo sapiens), sequence (Q15831 whole entry): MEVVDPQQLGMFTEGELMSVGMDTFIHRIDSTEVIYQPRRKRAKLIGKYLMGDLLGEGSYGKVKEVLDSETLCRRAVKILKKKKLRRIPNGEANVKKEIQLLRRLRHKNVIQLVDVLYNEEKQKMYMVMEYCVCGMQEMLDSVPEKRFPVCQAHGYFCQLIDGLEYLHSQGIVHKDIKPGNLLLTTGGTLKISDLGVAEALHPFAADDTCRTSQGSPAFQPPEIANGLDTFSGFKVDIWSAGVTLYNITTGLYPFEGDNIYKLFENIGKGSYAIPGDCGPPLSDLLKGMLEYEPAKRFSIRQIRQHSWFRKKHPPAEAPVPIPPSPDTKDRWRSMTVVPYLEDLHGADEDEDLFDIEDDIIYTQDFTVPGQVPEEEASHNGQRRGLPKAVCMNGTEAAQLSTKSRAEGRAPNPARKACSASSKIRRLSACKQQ
G protein-coupled receptor kinase 6 (Homo sapiens), sequence (P43250 whole entry, looked up): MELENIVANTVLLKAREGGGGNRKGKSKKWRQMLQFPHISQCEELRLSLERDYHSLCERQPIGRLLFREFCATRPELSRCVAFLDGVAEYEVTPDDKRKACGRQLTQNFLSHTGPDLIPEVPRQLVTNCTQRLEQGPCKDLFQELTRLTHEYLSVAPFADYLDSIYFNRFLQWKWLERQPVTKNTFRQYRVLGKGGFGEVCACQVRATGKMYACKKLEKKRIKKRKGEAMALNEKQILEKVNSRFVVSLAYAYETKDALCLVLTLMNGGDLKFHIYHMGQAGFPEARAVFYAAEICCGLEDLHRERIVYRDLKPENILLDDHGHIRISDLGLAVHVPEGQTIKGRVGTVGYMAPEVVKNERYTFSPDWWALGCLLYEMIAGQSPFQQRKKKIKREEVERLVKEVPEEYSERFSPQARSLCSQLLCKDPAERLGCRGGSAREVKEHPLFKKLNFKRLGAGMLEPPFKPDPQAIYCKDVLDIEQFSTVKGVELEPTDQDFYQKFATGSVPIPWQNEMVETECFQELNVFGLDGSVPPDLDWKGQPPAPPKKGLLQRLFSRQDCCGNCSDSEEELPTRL
Serine/threonine-protein kinase 26 (Homo sapiens), sequence (Q9P289 2-416 limits assumed): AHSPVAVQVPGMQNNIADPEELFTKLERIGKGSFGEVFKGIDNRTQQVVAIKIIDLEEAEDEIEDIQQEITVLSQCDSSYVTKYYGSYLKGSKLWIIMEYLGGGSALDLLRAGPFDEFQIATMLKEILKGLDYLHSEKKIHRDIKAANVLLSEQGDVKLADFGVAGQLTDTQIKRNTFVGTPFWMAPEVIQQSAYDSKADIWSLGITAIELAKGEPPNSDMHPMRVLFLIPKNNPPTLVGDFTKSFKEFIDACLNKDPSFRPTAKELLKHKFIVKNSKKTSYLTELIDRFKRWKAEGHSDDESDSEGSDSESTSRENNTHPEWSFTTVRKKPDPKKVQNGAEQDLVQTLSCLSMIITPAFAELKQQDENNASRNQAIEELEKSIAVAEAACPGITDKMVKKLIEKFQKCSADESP
Vascular endothelial growth factor receptor 2, sequence (P35968 whole entry): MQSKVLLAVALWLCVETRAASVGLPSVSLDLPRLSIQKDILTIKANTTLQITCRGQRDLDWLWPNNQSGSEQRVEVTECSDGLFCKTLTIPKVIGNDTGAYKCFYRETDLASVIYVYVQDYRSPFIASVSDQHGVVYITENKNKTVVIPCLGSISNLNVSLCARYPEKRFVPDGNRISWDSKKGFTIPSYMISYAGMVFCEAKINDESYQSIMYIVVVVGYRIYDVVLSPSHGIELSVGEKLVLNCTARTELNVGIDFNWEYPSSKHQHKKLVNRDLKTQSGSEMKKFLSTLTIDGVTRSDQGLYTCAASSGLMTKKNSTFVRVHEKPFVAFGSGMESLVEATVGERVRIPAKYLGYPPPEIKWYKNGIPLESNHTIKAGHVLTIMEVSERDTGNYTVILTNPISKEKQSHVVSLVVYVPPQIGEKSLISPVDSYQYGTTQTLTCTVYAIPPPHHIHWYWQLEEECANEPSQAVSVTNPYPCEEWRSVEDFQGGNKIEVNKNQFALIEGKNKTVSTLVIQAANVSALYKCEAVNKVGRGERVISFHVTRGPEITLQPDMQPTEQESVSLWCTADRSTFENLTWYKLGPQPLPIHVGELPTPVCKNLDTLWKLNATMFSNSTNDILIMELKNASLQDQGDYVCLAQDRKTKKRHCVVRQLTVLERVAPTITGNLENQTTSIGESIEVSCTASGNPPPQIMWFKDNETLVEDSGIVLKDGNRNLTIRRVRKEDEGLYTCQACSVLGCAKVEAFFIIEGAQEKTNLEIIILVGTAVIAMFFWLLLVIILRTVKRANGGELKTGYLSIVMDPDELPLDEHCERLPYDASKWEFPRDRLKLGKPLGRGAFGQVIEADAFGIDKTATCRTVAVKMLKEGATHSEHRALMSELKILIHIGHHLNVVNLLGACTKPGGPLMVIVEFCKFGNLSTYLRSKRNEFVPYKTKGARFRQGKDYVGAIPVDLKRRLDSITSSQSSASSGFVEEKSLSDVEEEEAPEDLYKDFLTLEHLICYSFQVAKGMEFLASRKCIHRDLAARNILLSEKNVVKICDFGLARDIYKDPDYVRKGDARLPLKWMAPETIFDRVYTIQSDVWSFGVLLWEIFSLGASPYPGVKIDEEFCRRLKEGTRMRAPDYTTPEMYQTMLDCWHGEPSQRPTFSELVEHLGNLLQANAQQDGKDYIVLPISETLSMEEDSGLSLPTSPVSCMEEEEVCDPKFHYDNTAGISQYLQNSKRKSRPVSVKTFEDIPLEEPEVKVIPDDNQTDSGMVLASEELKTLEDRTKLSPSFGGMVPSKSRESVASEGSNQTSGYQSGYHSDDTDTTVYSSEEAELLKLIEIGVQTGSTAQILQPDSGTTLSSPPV
Focal adhesion kinase 1, sequence (Q05397 whole entry): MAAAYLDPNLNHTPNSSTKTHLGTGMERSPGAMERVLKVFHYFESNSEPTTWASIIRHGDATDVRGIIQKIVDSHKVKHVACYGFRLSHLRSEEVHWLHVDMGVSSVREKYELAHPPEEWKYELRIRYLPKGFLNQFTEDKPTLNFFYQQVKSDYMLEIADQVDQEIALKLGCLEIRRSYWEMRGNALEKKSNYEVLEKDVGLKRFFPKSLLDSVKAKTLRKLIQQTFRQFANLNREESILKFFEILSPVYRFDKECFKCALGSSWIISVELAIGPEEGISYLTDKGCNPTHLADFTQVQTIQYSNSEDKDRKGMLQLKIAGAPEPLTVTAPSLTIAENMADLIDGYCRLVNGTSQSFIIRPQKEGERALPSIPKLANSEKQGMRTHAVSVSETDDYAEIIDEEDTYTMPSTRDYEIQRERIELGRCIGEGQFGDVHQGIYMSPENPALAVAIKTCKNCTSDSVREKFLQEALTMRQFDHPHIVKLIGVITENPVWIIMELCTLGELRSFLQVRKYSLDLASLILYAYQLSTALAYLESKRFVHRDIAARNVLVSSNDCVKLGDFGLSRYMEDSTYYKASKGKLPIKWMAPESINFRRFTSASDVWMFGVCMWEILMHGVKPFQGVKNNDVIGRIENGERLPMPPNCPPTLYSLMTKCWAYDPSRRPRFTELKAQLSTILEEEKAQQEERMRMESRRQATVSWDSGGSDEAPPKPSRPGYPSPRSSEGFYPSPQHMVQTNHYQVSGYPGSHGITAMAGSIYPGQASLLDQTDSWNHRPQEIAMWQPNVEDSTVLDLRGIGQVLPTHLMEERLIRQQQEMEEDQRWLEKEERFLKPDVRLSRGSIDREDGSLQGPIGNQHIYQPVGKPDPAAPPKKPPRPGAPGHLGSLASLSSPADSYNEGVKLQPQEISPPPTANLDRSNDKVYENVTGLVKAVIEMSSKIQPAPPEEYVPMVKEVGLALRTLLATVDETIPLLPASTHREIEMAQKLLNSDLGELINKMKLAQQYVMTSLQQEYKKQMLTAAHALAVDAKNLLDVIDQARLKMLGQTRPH
Serine/threonine-protein kinase Nek6 (Homo sapiens), sequence (Q9HC98 whole entry): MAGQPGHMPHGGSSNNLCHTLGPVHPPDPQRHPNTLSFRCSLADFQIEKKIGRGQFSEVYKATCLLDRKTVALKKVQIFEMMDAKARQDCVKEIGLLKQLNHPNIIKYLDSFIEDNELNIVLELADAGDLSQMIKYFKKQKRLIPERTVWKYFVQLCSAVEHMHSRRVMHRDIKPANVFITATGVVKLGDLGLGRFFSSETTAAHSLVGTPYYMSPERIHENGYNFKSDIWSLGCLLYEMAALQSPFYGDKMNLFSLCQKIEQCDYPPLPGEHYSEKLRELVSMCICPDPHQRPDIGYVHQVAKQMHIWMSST
Serine/threonine-protein kinase pim-2 (Homo sapiens), sequence (Q9P1W9 whole entry, looked up): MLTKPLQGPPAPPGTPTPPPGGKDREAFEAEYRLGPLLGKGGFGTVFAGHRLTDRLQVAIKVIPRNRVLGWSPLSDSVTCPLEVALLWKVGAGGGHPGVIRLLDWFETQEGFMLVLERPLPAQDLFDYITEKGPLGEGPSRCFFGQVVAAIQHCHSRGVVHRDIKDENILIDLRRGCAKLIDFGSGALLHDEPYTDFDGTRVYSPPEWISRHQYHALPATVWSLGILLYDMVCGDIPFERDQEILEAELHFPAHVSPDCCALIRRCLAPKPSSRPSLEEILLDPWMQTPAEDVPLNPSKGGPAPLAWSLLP

COc1cc(N2CCC(N3CCN(C)CC3)CC2)ccc1Nc1ncc(Cl)c(Nc2ccccc2P(C)(C)=O)n1 [BRIGATINIB]
inhibition [1]: < 90% | IC50 (Focal adhesion kinase 1): 3.9 nM | IC50 [2]: 4.4 nM | IC50 [3]: 23 nM | IC50 [4]: 26 nM | IC50 [5]: 198 nM | IC50 [6]: 816 nM | inhibition [7]: < 90% | inhibition [8]: < 90% | inhibition [9]: < 90% | inhibition [10]: < 90% | inhibition [11]: < 90% | inhibition [12]: < 90% | inhibition [13]: < 90% | inhibition [14]: < 90% | inhibition [15]: < 90% | inhibition [16]: < 90% | inhibition [17]: < 90% | inhibition [18]: < 90% | inhibition [19]: < 90% | inhibition [20]: < 90% | inhibition [21]: < 90% | Activity (KARPAS-299): Dose-Dependent Effect | Activity (NCI-H2228): Active | IC50 [22]: 148 nM | GI50 (NCI-H3122): 4 nM | IC90 [23]: 129 nM | inhibition [24]: Active
